Results as given in article PMC6271944 (Molecules, 2014).

Legend:
CYP1A2 = target: T1, CYP1A2 (Rattus norvegicus, UniProt P04799); assay: CYP inhibition in rat liver microsomes, substrate cocktail, LC-MS/MS (phenacetin); format: in vitro ADME; parameters: Pooled rat liver microsomes were prepared from three male Sprague-Dawley rats; from tissue; host or cells: pooled liver microsomes of three male Sprague-Dawley rats, prepared at HD Biosciences Co; conditions: read-out: IC50 for RLM, CYP1A2
T1 sequence (P04799 1-513): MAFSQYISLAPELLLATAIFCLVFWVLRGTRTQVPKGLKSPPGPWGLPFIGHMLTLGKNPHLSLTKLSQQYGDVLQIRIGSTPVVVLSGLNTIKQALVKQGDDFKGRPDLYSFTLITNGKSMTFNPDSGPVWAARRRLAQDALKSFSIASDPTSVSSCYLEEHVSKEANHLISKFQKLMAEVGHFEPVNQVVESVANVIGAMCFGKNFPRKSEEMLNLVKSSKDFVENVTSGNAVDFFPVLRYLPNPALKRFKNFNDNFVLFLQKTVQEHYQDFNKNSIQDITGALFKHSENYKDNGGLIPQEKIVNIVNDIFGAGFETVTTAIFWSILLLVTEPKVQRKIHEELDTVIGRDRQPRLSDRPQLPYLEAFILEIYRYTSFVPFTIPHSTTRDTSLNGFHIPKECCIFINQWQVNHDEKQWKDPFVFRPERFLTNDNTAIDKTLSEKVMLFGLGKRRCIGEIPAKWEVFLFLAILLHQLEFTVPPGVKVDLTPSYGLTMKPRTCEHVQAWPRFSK
Text: (§1) Positive controls (furafyline for CYP1A2, montelukast for CYP2C8, sulfaphenazole for CYP2C9, S-(+)-N-3-benzylnirvanol for CYP2C19, quinidine for CYP2D6, ketoconazole for CYP3A4) and specific substrates (phenacetin for CYP1A2, paclitaxel for CYP2C8, diclofenac for CYP2C9, S-mephenytoin for CYP2C19, dextromethorphan for CYP2D6, midazolam for CYP3A4) are consistent with our previous papers. The substrates were used at concentrations approximately equal to their respective Michaelis-Menten constant (Km) values: 10 μM phenacetin, 5 μM paclitaxel, 5 μM diclofenac, 200 μM S-mephenytoin, 5 μM dextromethorphan, and 2 μM midazolam. NADP^+ was added after a 15 min preincubation of all other components at 37 °C. After a given incubation time (30 min), the reactions were terminated by addition of 60 μL ice-cold acetonitrile containing gemfibrozil and buspirone as internal standards. Incubation samples were stored at −80 °C until used in liquid chromatography-tandem mass spectrometry (LC-MS/MS) analysis. The mixture was centrifuged at 3,500 rpm for 5 min. The supernatant was mixed with equal volume of a 1:1 mixture of methanol and water and 20 μL of the final mixture was used for LC-MS/ MS analysis. […]
(§2) The CYP inhibition potential were evaluated by measuring the formation of one or more metabolites of the test substrates. […]

UGT1A6 = system: UGT1A6; parameters: dose or concentration left out as unconfirmed; conditions: cited from earlier work
CYP2D4 = target: T2, CYP2D4 (Rattus norvegicus, UniProt Q64680); assay: CYP inhibition in rat liver microsomes, substrate cocktail, LC-MS/MS (dextromethorphan); format: in vitro ADME; conditions: pH 7.4, probe dextromethorphan 5 μM, read-out: IC50 for RLM, CYP2D4 (table row CYP2D6)
T2 sequence (Q64680 1-500): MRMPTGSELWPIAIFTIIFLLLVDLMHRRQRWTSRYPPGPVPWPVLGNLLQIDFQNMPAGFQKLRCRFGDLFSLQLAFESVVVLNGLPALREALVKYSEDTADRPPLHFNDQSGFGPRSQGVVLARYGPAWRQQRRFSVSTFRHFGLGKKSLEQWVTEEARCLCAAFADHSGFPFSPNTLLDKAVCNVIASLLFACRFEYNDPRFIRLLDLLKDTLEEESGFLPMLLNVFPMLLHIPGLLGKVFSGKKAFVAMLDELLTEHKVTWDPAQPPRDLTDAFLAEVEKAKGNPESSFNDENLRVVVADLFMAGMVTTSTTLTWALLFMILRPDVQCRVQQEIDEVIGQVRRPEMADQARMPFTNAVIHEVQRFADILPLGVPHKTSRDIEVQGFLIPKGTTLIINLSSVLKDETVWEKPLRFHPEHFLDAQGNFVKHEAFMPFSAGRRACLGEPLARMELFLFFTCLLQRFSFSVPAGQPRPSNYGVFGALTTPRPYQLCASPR
Text: as §1, §2

CYP3A4 = target: T3, CYP3A4 (Homo sapiens, UniProt P08684); assay: CYP inhibition in human liver microsomes, substrate cocktail, LC-MS/MS (midazolam); format: in vitro ADME; conditions: metabolite 1-hydroxymidazolam, read-out: IC50 for HLM, CYP3A4
T3 construct: Pooled human liver microsomes (HLM, LOT 32556) were purchased from BD Gentest Corporation; tissue BD Gentest Corporation LOT 32556; host or cells: pooled human liver microsomes
T3 sequence (P08684 whole entry): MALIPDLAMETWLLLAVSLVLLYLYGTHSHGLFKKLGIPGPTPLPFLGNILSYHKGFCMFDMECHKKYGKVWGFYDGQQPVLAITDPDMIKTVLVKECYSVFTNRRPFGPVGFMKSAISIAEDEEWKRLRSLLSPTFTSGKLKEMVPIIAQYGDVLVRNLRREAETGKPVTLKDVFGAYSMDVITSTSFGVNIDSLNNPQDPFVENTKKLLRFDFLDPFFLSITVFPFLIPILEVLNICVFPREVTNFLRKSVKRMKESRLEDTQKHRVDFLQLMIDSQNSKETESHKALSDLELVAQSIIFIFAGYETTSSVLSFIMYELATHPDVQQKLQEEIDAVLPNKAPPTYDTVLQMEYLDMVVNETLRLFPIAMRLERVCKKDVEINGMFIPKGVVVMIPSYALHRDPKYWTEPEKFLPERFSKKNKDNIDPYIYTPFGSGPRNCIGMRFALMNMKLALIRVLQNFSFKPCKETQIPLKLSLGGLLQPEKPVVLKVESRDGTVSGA
Text: as §1, §2

## O=C(O)[C@H]1O[C@@H](Oc2cc3oc(-c4ccc(O)cc4)cc(=O)c3c(O)c2O)[C@H](O)[C@@H](O)[C@@H]1O [scutellarin, Scutellarin]
CYP1A2
  IC50: > 100 µM
UGT1A6
  inhibition towards the activity of UGT1A6: 20.2%
CYP2D4
  IC50 at 30 min: > 100 µM
CYP3A4
  IC50: > 100 µM
